The source made the active and inactive calls. No cut-off for these calls is given here.

Data set [1] addresses Beta-1 adrenergic receptor (Homo sapiens, UniProt P08588).
Description: Agonist activity at human beta-1 adrenoceptor expressed in CHOK1 cell assessed as increase of intracellular cAMP level
The target of data set [2] is Beta-2 adrenergic receptor (Homo sapiens, UniProt P07550).
Description: Agonist activity at human beta2 adrenoceptor expressed in CHOK1 cell assessed as increase of intracellular cAMP level
The next data set is filed under the species Homo sapiens. In words: Selectivity ratio, EC50 for human beta-1 adrenoceptor to EC50 for human beta2 adrenoceptor.
In data set [3] the test system is Cavia porcellus. In words: Bronchoprotective activity in intratracheally dosed guinea pig assessed as inhibition of acetylcholine-induced increase in pulmonary resistance after 5 hrs. The class given is functional, organism-based.
The subject of data set [4] is Cavia porcellus. In words: Toxicity in intratracheally dosed guinea pig assessed as increase in heart rate after 10 to 20 mins. Format: organism-based. The settings on record: in vivo, inhaled_or_intranasal.
The test system of data set [5] is Cavia porcellus. In words: Toxicity in guinea pig assessed as increase in heart rate at 3 ug/kg, intratracheally after 90 mins. Format: organism-based. The settings on record: in vivo, inhaled_or_intranasal, 0.003 mg/kg, 1.5 h.
The test system of data set [6] is Cavia porcellus. Nature of the data set: Toxicity in guinea pig assessed as increase in heart rate at 10 ug/kg, intratracheally after 90 mins. The class given is organism-based. The settings on record: in vivo, inhaled_or_intranasal, 0.01 mg/kg, 1.5 h.
Data set [7] has as its system Cavia porcellus. Nature of the data set: Bronchoprotective activity in guinea pig assessed as inhibition of acetylcholine-induced increase in pulmonary resistance at 10 ug/kg, intratracheally after 5 hrs. The class given is functional. Also noted: scale not given: the % may be the effect or the level left.
Data set [8] relates to Cavia porcellus. In words: Bronchoprotective activity in guinea pig assessed as inhibition of acetylcholine-induced increase in pulmonary resistance at 3 ug/kg, intratracheally after 5 hrs. The class given is functional, organism-based.

Chain of Beta-2 adrenergic receptor (P07550 whole entry): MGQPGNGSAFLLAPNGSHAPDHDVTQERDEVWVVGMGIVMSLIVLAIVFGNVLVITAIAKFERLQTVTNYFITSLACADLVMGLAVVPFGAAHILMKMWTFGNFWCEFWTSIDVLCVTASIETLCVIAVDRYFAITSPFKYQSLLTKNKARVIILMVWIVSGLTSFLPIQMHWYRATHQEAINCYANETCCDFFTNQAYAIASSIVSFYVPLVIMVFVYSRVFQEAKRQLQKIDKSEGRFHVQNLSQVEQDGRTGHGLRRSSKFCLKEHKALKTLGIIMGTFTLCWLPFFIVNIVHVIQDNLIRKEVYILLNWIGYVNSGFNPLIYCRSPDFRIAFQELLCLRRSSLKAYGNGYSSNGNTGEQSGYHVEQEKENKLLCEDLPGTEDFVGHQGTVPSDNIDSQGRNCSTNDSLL
Chain of Beta-1 adrenergic receptor (P08588 whole entry): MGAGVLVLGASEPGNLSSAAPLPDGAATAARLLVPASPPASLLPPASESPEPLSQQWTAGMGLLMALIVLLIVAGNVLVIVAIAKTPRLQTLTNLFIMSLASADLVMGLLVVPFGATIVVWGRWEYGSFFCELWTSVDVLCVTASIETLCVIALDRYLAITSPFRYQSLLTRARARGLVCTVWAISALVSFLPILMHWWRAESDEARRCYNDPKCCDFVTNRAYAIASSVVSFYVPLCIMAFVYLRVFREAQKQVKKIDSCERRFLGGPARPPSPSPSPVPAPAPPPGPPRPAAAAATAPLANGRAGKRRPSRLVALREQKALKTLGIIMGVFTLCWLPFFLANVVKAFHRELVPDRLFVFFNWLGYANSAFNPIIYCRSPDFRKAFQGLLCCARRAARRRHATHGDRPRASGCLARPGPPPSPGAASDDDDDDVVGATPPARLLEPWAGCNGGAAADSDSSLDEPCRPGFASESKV

Consider `CC(C)(Cc1ccc(NC(=O)CCCN=C(N)N)cc1)NCC(O)c1cc(O)cc2c1OCC(=O)N2` (centres undefined), for which the values for the EC50 in data set [1] and in data set [2] were 18 nM and 4.1 nM, respectively.
On to `CC(C)(Cc1ccc(NC(=O)CCCNCCCS(=O)(=O)O)cc1)NCC(O)c1ccc(O)c2c1OCC(=O)N2` (centres undefined), for which, in the data set listed under Homo sapiens, the Ratio EC50 worked out at 5.5. For the same compound, the Activity result was “Dose-dependent effect” in the data set on Cavia porcellus [3], “Toxic” in the data set on Cavia porcellus [4] and “Active” in the data set with Cavia porcellus [5]. Moreover, the values for the EC50 in data set [1] and in [2] were 9.9 nM and 1.8 nM, respectively.
`CC(C)(Cc1ccc(NC(=O)CCCN)cc1)NCC(O)c1ccc(O)c2c1OCC(=O)N2` (centres undefined): the Ratio EC50 in the data set listed under Homo sapiens came out at 3.1. The EC50 is 3.4 nM in data set [1] and 1.1 nM in [2].
As to `CN1CCN(CC(=O)NCCCC(=O)Nc2ccc(CC(C)(C)NCC(O)c3ccc(O)c4c3OCC(=O)N4)cc2)CC1` (centres undefined), in the data set listed under Homo sapiens, the Ratio EC50 came out at 4.8. For the same compound, the EC50 was 5.7 nM in [1] and 1.2 nM in data set [2].
On to `CC(C)(Cc1ccc(NC(=O)CCCNC(=O)C(N)CCCN)cc1)NCC(O)c1ccc(O)c2c1OCC(=O)N2` (centres undefined), for which the Ratio EC50 in the data set listed under Homo sapiens came out at 4.4. Further, the Activity entry is “Dose-dependent effect” in the data set on Cavia porcellus [3], “Toxic” in the data set on Cavia porcellus [4], greater than 10% in the data set with Cavia porcellus [6] and 100% in the data set with Cavia porcellus [7]. For the same compound, the EC50 came out at 24 nM in data set [1] and 5.4 nM in [2]. Further, in the data set with Cavia porcellus [8], the result was Active.
On to `CC(C)(Cc1ccc(NC(=O)CCCNC(=N)N)cc1)NCC(O)c1cc(O)cc2c1OCC(=O)N2` (centres undefined), for which the Ratio EC50 in the data set listed under Homo sapiens turned out to be 4.4.
On to `CC(C)(Cc1ccc(NC(=O)CCCNC(=N)N)cc1)NCC(O)c1ccc(O)c2c1OCC(=O)N2` (centres undefined), for which the Ratio EC50 in the data set listed under Homo sapiens came to 1.8. The Activity entry in the data set with Cavia porcellus [3] is “Dose-dependent effect”; with Cavia porcellus [4], “Toxic”; in the data set with Cavia porcellus [6], greater than 10%; in the data set on Cavia porcellus [7], 100%. Further, the figures for the EC50 in [1] and in data set [2] were 1.8 nM and 1 nM, respectively. In addition, the outcome with Cavia porcellus [8] was Active.
Turning to `CN(C)CC(=O)NCCCC(=O)Nc1ccc(CC(C)(C)NCC(O)c2ccc(O)c3c2OCC(=O)N3)cc1` (centres undefined), the Ratio EC50 in the data set filed under Homo sapiens was found to be 10.6. The EC50 was determined as 5.3 nM in data set [1] and 0.5 nM in data set [2].
On the same counts, the results for `CC(C)(Cc1ccc(NC(=O)CCCNC(=O)C[N+](C)(C)C)cc1)NCC(O)c1ccc(O)c2c1OCC(=O)N2` (centres undefined) are 3.5, 3.5 nM and 1 nM.
On the same counts, the results for `CC(C)(Cc1ccc(NC(=O)CCCNC(=O)CCN)cc1)NCC(O)c1ccc(O)c2c1OCC(=O)N2` (centres undefined) are 5.1, 4.6 nM and 0.9 nM.
On the same counts, the results for `CC(C)(Cc1ccc(NC(=O)CCCNC(=O)C[N+](C)(C)C)cc1)NCC(O)c1cc(O)cc2c1OCC(=O)N2` (centres undefined) are 2.4, 28 nM and 11.6 nM.
Take `CC(C)(Cc1ccc(NC(=O)CCCN)cc1)NCC(O)c1cc(O)cc2c1OCC(=O)N2` (centres undefined): the Ratio EC50 in the data set filed under Homo sapiens was determined as 1.2. In addition, the values for the EC50 in [1] and in [2] were 11 nM and 9 nM, respectively.
Turning to `CC(C)(Cc1ccc(NC(=O)CCCNC(=O)CN)cc1)NCC(O)c1ccc(O)c2c1OCC(=O)N2` (centres undefined), the Ratio EC50 in the data set filed under Homo sapiens worked out at 3.8. The Activity entry with Cavia porcellus [3] was “Dose-dependent effect”; in the data set on Cavia porcellus [4], “Toxic”; with Cavia porcellus [6], greater than 10%; with Cavia porcellus [7] it was 100%. In addition, the concentration giving a half-maximal response (EC50) in [1] came out at 4.5 nM; in data set [2], 1.2 nM. The result with Cavia porcellus [8] was Active.

One may read the EC50 as the concentration giving half of the maximal effect.
